From ChEMBL document CHEMBL1201862, “PubChem BioAssay data set” (2004)
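Where inhibition never reached the appropriate level, the endpoint shown equals the highest concentration tested. Otherwise, values were interpolated linearly from a five-concentration, 48-hour dose response in 96-well plates. GI50 = concentration required for 50% inhibition of growth.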 Active and inactive are the calls of the source. Rule as the data show it: active = GI50 up to about 1.1 µM and inactive = higher. Non-standard residues stand in square brackets, D forms with d. Residues, ends and D or L forms follow the SMILES beside them. *: point of attachment. Bn2Val = CC(C)[C@@H](C(=O)*)N(Cc1ccccc1)Cc1ccccc1; NH(4-Cl-benzyl) = Clc1ccc(CN*)cc1; NMeV = CN[C@H](C(=O)O)C(C)C; dNMeA = CN[C@H](C)C(=O)O

Columns and labels:
Experiment in all cases: NCI tumour cell line growth inhibition, 48 h
[1] = test system: 786-0
[2] = test system: A549
[3] = test system: ACHN
[4] = test system: BT-549
[5] = test system: CAKI-1
[6] = test system: CCRF-CEM
[7] = test system: COLO 205
[8] = test system: DU-145
[9] = test system: EKVX
[10] = test system: HCT-116
[11] = test system: HCT-15
[12] = test system: HL-60
[13] = test system: HOP-62
[14] = test system: HOP-92
[15] = test system: HT-29
[16] = test system: Hs-578T
[17] = test system: IGROV-1
[18] = test system: K562
[19] = test system: KM12
[20] = test system: LOX IMVI
[21] = test system: M14
[22] = test system: MDA-MB-231
[23] = test system: MDA-MB-435
[24] = test system: MDA-N
[25] = test system: MOLT-4
[26] = test system: Malme-3M
[27] = test system: NCI-H226
[28] = test system: NCI-H23
[29] = test system: NCI-H460
[30] = test system: NCI-H522
[31] = test system: NCI/ADR-RES
[32] = test system: OVCAR-3
[33] = test system: OVCAR-4
[34] = test system: OVCAR-5
[35] = test system: OVCAR-8
[36] = test system: PC-3
[37] = test system: RPMI-8226
[38] = test system: RXF 393
[39] = test system: SF-268
[40] = test system: SF-295
[41] = test system: SF-539
[42] = test system: SK-MEL-28
[43] = test system: SK-MEL-2
[44] = test system: SK-MEL-5
[45] = test system: SK-OV-3
[46] = test system: SN12C
[47] = test system: SNB-19
[48] = test system: SNB-75
[49] = test system: SR
[50] = test system: SW-620
[51] = test system: T47D
[52] = test system: TK-10
[53] = test system: U-251
[54] = test system: UACC-257
[55] = test system: UACC-62
[56] = test system: A498
[57] = test system: HCC 2998
[58] = test system: MCF7
[59] = test system: UO-31

CC(C)[C@H](NC(=O)[C@H](C(C)C)N(Cc1ccccc1)Cc1ccccc1)C(=O)N(C)[C@H](C(=O)N1CCC[C@H]1C(=O)N(C)[C@H](C)C(=O)NCc1ccc(Cl)cc1)C(C)C (Bn2Val-V[NMeV]P[dNMeA]-{NH(4-Cl-benzyl)})
GI50 [1]: 3.26 µM (inactive)
GI50 [2]: 4.04 µM (inactive)
GI50 [3]: 2.98 µM (inactive)
GI50 [4]: 3.18 µM (inactive)
GI50 [5]: 5.94 µM (inactive)
GI50 [6]: 2.42 µM (inactive)
GI50 [7]: 2.09 µM (inactive)
GI50 [8]: 4.11 µM (inactive)
GI50 [9]: 2.46 µM (inactive)
GI50 [10]: 3.02 µM (inactive)
GI50 [11]: 3.13 µM
GI50 [12]: 1.77 µM (inactive)
GI50 [13]: 4.38 µM (inactive)
GI50 [14]: 2.84 µM (inactive)
GI50 [15]: 1.74 µM (inactive)
GI50 [16]: 1.05 µM (active)
GI50 [17]: 2.69 µM (inactive)
GI50 [18]: 4.04 µM (inactive)
GI50 [19]: 3.38 µM (inactive)
GI50 [20]: 1.85 µM (inactive)
GI50 [21]: 4.01 µM (inactive)
GI50 [22]: 2.65 µM (inactive)
GI50 [23]: 4.03 µM (inactive)
GI50 [24]: 4.43 µM (inactive)
GI50 [25]: 2.42 µM (inactive)
GI50 [26]: 10.3 µM (inactive)
GI50 [27]: 3.72 µM (inactive)
GI50 [28]: 3.37 µM (inactive)
GI50 [29]: 3.96 µM (inactive)
GI50 [30]: 2.06 µM (inactive)
GI50 [31]: 3.32 µM (inactive)
GI50 [32]: 2.76 µM (inactive)
GI50 [33]: 3.96 µM (inactive)
GI50 [34]: 4.9 µM (inactive)
GI50 [35]: 4.22 µM (inactive)
GI50 [36]: 2.75 µM (inactive)
GI50 [37]: 2.69 µM (inactive)
GI50 [38]: 1.53 µM (inactive)
GI50 [39]: 2.98 µM (inactive)
GI50 [40]: 3.11 µM (inactive)
GI50 [41]: 3.88 µM (inactive)
GI50 [42]: 4.98 µM (inactive)
GI50 [43]: 1.62 µM (inactive)
GI50 [44]: 3.89 µM (inactive)
GI50 [45]: 16.2 µM (inactive)
GI50 [46]: 2.58 µM (inactive)
GI50 [47]: 4.24 µM (inactive)
GI50 [48]: 3.44 µM (inactive)
GI50 [49]: 3.85 µM (inactive)
GI50 [50]: 3.72 µM (inactive)
GI50 [51]: 3.51 µM (inactive)
GI50 [52]: 5.87 µM (inactive)
GI50 [53]: 2.86 µM (inactive)
GI50 [54]: 4.78 µM (inactive)
GI50 [55]: 3.32 µM (inactive)

CC(=N)OC1CC2CCC1(C)C2(C)C (centres undefined)
GI50 [1]: > 100 µM (inactive)
GI50 [56]: > 100 µM (inactive)
GI50 [2]: > 100 µM (inactive)
GI50 [3]: > 100 µM (inactive)
GI50 [4]: > 100 µM (inactive)
GI50 [5]: > 100 µM (inactive)
GI50 [6]: > 100 µM (inactive)
GI50 [7]: > 100 µM (inactive)
GI50 [8]: > 100 µM (inactive)
GI50 [9]: > 100 µM (inactive)
GI50 [57]: > 100 µM (inactive)
GI50 [10]: > 100 µM (inactive)
GI50 [11]: > 100 µM
GI50 [12]: > 100 µM (inactive)
GI50 [13]: > 100 µM (inactive)
GI50 [14]: > 100 µM (inactive)
GI50 [15]: > 100 µM (inactive)
GI50 [16]: > 100 µM (inactive)
GI50 [17]: > 100 µM (inactive)
GI50 [18]: > 100 µM (inactive)
GI50 [19]: > 100 µM (inactive)
GI50 [20]: > 100 µM (inactive)
GI50 [21]: > 100 µM (inactive)
GI50 [58]: > 100 µM (inactive)
GI50 [22]: > 100 µM (inactive)
GI50 [23]: > 100 µM (inactive)
GI50 [24]: > 100 µM (inactive)
GI50 [25]: > 100 µM (inactive)
GI50 [26]: > 100 µM (inactive)
GI50 [27]: > 100 µM (inactive)
GI50 [28]: > 100 µM (inactive)
GI50 [29]: > 100 µM (inactive)
GI50 [30]: > 100 µM (inactive)
GI50 [32]: > 100 µM (inactive)
GI50 [33]: > 100 µM (inactive)
GI50 [34]: > 100 µM (inactive)
GI50 [35]: > 100 µM (inactive)
GI50 [36]: > 100 µM (inactive)
GI50 [37]: > 100 µM (inactive)
GI50 [38]: > 100 µM (inactive)
GI50 [39]: > 100 µM (inactive)
GI50 [40]: > 100 µM (inactive)
GI50 [41]: > 100 µM (inactive)
GI50 [42]: > 100 µM (inactive)
GI50 [44]: > 100 µM (inactive)
GI50 [45]: > 100 µM (inactive)
GI50 [46]: > 100 µM (inactive)
GI50 [48]: > 100 µM (inactive)
GI50 [49]: > 100 µM (inactive)
GI50 [50]: > 100 µM (inactive)
GI50 [51]: > 100 µM (inactive)
GI50 [52]: > 100 µM (inactive)
GI50 [53]: > 100 µM (inactive)
GI50 [54]: > 100 µM (inactive)
GI50 [55]: > 100 µM (inactive)
GI50 [59]: > 100 µM (inactive)

COc1ccc2cc(Oc3ccc(Cl)cc3)c(=O)oc2c1
GI50 [1]: > 100 µM (inactive)
GI50 [56]: 93.5 µM (inactive)
GI50 [2]: > 100 µM (inactive)
GI50 [3]: > 100 µM (inactive)
GI50 [4]: > 100 µM (inactive)
GI50 [5]: > 100 µM (inactive)
GI50 [6]: > 100 µM (inactive)
GI50 [8]: > 100 µM (inactive)
GI50 [9]: > 100 µM (inactive)
GI50 [57]: > 10 µM (inactive)
GI50 [10]: > 100 µM (inactive)
GI50 [11]: > 100 µM
GI50 [12]: > 100 µM (inactive)
GI50 [13]: 50.1 µM (inactive)
GI50 [14]: > 100 µM (inactive)
GI50 [15]: > 100 µM (inactive)
GI50 [16]: > 100 µM (inactive)
GI50 [17]: > 100 µM (inactive)
GI50 [18]: > 100 µM (inactive)
GI50 [19]: > 100 µM (inactive)
GI50 [20]: > 100 µM (inactive)
GI50 [21]: > 100 µM (inactive)
GI50 [58]: > 100 µM (inactive)
GI50 [22]: > 100 µM (inactive)
GI50 [24]: > 100 µM (inactive)
GI50 [25]: > 100 µM (inactive)
GI50 [26]: > 100 µM (inactive)
GI50 [27]: > 100 µM (inactive)
GI50 [28]: > 100 µM (inactive)
GI50 [29]: > 100 µM (inactive)
GI50 [30]: > 100 µM (inactive)
GI50 [32]: > 100 µM (inactive)
GI50 [33]: > 100 µM (inactive)
GI50 [34]: > 100 µM (inactive)
GI50 [35]: > 100 µM (inactive)
GI50 [36]: > 100 µM (inactive)
GI50 [37]: > 100 µM (inactive)
GI50 [38]: > 100 µM (inactive)
GI50 [39]: 50.8 µM (inactive)
GI50 [40]: 60.5 µM (inactive)
GI50 [41]: > 100 µM (inactive)
GI50 [42]: > 100 µM (inactive)
GI50 [44]: > 100 µM (inactive)
GI50 [46]: > 100 µM (inactive)
GI50 [47]: > 100 µM (inactive)
GI50 [48]: > 100 µM (inactive)
GI50 [49]: > 100 µM (inactive)
GI50 [50]: > 100 µM (inactive)
GI50 [51]: > 100 µM (inactive)
GI50 [52]: > 100 µM (inactive)
GI50 [53]: > 10 µM (inactive)
GI50 [54]: > 100 µM (inactive)
GI50 [59]: > 100 µM (inactive)
